The values that follow come from article PMC12116762, “Topobexin targets the Topoisomerase II ATPase domain for beta isoform-selective inhibition and anthracycline cardioprotection” (Nature Communications, 2025).

The term Cmax denotes the maximum level reached in the sampled fluid or tissue. One may read the Tmax as the time at which the peak concentration occurs. What is called IC50 is the concentration at which inhibition is half-maximal.

“And” between values parts separate entries of the source, which are not always exact repeats. Identical values can stand only once.

Data set [1] deals with T1, TOP2A-DNA covalent complex (Homo sapiens, UniProt P11388).
T1 construct: endogenous in cells; host or cells: HEK293F
T1 sequence (P11388 whole entry, one chain of several): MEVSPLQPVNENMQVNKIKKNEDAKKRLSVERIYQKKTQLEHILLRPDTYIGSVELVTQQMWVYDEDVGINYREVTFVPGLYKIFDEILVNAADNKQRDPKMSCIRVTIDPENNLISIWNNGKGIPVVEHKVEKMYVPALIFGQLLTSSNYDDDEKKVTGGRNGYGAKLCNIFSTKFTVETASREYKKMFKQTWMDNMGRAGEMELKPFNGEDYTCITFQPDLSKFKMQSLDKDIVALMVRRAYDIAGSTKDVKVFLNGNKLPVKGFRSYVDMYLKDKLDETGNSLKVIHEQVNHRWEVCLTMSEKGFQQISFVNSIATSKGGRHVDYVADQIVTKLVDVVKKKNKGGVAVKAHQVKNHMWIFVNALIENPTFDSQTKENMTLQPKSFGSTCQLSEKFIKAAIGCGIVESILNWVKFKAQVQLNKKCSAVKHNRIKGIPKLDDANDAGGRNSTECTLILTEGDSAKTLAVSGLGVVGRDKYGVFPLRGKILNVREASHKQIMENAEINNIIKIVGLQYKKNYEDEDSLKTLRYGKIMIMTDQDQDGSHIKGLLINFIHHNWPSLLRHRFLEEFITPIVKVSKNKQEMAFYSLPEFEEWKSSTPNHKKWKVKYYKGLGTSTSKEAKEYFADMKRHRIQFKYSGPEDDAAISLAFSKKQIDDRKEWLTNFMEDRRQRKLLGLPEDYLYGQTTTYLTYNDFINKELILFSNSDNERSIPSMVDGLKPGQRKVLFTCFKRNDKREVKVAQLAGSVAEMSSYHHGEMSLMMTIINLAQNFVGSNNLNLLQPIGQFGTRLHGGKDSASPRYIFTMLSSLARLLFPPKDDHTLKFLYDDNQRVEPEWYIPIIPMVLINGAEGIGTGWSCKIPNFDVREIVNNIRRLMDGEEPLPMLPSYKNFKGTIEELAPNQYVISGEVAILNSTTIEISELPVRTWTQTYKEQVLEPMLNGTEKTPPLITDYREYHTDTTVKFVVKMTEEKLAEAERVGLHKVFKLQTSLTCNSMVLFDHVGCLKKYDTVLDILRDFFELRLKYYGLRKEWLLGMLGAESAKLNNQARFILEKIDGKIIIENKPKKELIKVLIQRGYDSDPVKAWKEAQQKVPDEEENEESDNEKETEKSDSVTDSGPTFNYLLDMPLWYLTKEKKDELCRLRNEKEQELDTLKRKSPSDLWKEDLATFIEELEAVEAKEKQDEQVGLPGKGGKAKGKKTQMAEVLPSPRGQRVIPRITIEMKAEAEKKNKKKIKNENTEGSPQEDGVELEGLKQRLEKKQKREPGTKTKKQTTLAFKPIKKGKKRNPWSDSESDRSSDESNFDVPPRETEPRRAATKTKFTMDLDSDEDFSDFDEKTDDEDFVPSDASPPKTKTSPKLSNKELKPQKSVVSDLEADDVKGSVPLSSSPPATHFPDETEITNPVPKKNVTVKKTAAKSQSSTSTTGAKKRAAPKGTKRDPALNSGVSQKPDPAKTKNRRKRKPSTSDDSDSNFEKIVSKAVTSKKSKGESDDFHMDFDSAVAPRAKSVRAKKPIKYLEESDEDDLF
The data set can be described thus: RADAR assay, etoposide-induced TOP2A-DNA covalent complex in HEK293F cells. The settings on record: for TOP2A spot intensity: independent replicates. In kind it is cell-based. The procedure: HEK293F cells were plated at 3 × 10^5 cells per well and grown overnight. […] Upon removal of media, cells in each well were immediately lysed with 750 µL DNAzol (Molecular Research Center, Inc.) and the DNA was precipitated by addition of 375 µL of 100% ethanol. This step was then repeated to eliminate protein aggregates. Precipitate from each sample was pelleted via centrifugation at 4 °C and max speed for 5 min. The pellets were washed twice with buffer containing 20 mM Tris pH 7.5, 1 mM EDTA pH 8.0, 50 mM NaCl, 50% EtOH, and at the end of each wash, centrifugation at 4000 × g for 2 min was repeated to isolate the DNA pellets. The pellets were washed in 75% EtOH and then collected by centrifugation at 4 °C and max speed for 5 min. The supernatant was removed via pipetting, and the remaining pellets were air dried for 5 min before 50 µL 8 mM NaOH and 0.1% Tween-20 was added to each pellet. Once no visible precipitate remained, each mixture was supplemented with 5 µL of Benzonase buffer containing 500 mM Tris pH 8.0, 10 mM MgCl2, 1/1000 Roche complete protease inhibitor cocktail (Millipore Sigma) and 40 units Benzonase (Millipore Sigma) followed by 30 to 60 min incubation at 37 °C until the pellets were fully dissolved. The DNA content from each sample was quantified on a nanodrop, and 10 µg of DNA was diluted to a final volume of 200 µL in 8 mM NaOH and 0.1% Tween. The samples were applied over the Whatman Minifold I dot blot apparatus (Cytiva) and collected on a PVDF membrane (Thermo Fisher Scientific). The membrane was washed three times with 8 mM NaOH and 0.1% Tween-20 solution prior to removal and blocking with the same wash solution containing 1 mg/mL BSA. Western blotting was carried out on an iBind (Thermo Fisher Scientific) and TOP2 proteins were detected using isoform-specific antibody against full length TOP2A (1:250 dilution; HT2A21, Inspiralis) and TOP2B (1:500 dilution; 611493, BD Biosciences) and visualized with anti-rabbit (1:1000 dilution; 926-68071, LI-COR Bio) and anti-mouse (1:1000 dilution; 926-32210, LI-COR Bio) secondary antibodies in iBind running buffer. The blots were imaged on a LI-COR Odyssey Fc and analysed using ImageStudio. Each presented data point was obtained from distinct sample.

Data set [2] is described as follows: Plasma pharmacokinetics in rabbits (LC-MS/MS). It counts as in vivo, rabbit. How it is done:
Six rabbits were used to determine the plasma pharmacokinetics of topobexin (9). The compound was used as a dihydrochloride and was dissolved right before administration in sterile saline (10 mg of free base/ml); pH was optimized using NaOH and the solution was filtered through an antimicrobial filter (0.22 µm porosity, Carl Roth GmbH + Co. KG, Germany). The drug was administered i.v. using marginal ear vein at 10 mg/kg (counted as a free base) in a 20 min infusion. The dose, route of administration, and timing of infusion were determined based on preliminary pharmacokinetic experiments. Blood for pharmacokinetic analysis was collected from the central artery in the contralateral ear before drug administration (blank) and in preselected time intervals after drug administration (5 min to 10 h). Blood was collected in BD Vacutainer tubes (BD Biosciences, Plymouth, UK) containing lithium heparin. All samples were immediately centrifuged (5 min, 3000 × g), plasma was harvested and frozen immediately in liquid nitrogen and the samples were stored at -80 °C until analysis.
The concentration of topobexin (9) was determined in plasma samples using an analytical method developed and validated for this purpose. Briefly, rabbit plasma (50 μl) was spiked with internal standard (compound 14), precipitated with ice-cold acetonitrile (200 μl), vortexed (30 s), and centrifuged (10 min, 9520 × g, 4 °C). The resulting supernatant was filtered through a 0.45 μm porosity filter (Milex – Hv, Merck Milipore, Darmstadt, Germany) and analyzed using UHPLC-MS. Agilent 1290 Infinity II LC with Triple Quad LC/MS (6400 series), a Jet Stream Electrospray and Mass Hunter software (Agilent, Santa Clara, CA, USA) were used for the analyzes and data treatment, respectively. Chromatographic separation was achieved on the Zorbax Eclipse Plus C18 column (50 × 2.1 mm, 1.8 μm, […], Dublin, Ireland). The mobile phase composed of part A (0.0025% formic acid) and part B (acetonitrile) was mixed in the following gradient: 0–1 min (10% B), 1–3 (10–60% B), 3–3.5 min (60% B), 3.51–5 min (80% B), 5.01–6 min (10% B). The flow rate of mobile phase was 0.3 mL/min and 2 μL of the sample were injected onto the column. The linearity of the method was verified within the concentration range of 1 to 1000 nM topobexin (9) in rabbit plasma.

Data set [3] relates to HL-60 cell line. More on the design: method as in previously determined. The conditions noted are these: ref previously determined, read-out: IC50, antiproliferative; cited from earlier work.
Where [4] appears, read: iv, rabbit plasma, 10 mg/kg, 20 min i.v. infusion.

As for `CCCc1cc(=O)oc2c(C(=O)N3CCCc4ccccc43)c(OCCN3CCN(C)CC3)ccc12` [topobexin (9)], the TOP2A spot intensity in data set [1] (Cmpd 9 0.1 μM + etoposide 5 μM) was 56.77 and 79.14 and 121.2 and 109.4 and 138; in data set [1] (Cmpd 9 1 μM + etoposide 5 μM), 31.84 and 81.31 and 94.03 and 77.86 and 117.3; in data set [1] (Cmpd 9 10 μM + etoposide 5 μM), 13.9 and 41.59 and 30.46 and 21.29 and 12.52; in data set [1] (Cmpd 9 10 μM, etoposide 0, background subtracted) it was 0.2099 and 13.4 and 11.83 and 3.115 and 7.885. The “concentration significantly reducing TOP2A-DNA CC” value in data set [1] (etoposide-induced, HEK293F) was found to be 10 µM. In addition, the Plasma concentration was 9.134 µM and 17.429 µM and 15.678 µM and 15.114 µM and 12.648 µM in data set [2] (10 min, individual subjects); 11.689 µM and 11.373 µM and 12.322 µM and 16.573 µM and 12.398 µM in data set [2] (20 min, individual subjects); 4.374 µM and 4.139 µM and 3.247 µM and 3.779 µM and 3.693 µM in data set [2] (40 min, individual subjects); 1.755 µM and 3.643 µM and 3.122 µM and 2.610 µM and 3.293 µM and 2.847 µM in data set [2] (60 min, individual subjects); 1.524 µM and 1.569 µM and 1.234 µM and 1.184 µM and 1.188 µM in data set [2] (120 min, individual subjects); 0.456 µM and 0.440 µM and 0.629 µM and 0.503 µM and 0.425 µM in data set [2] (240 min, individual subjects). Further, the Plasma concentration is 0.161 µM and 0.144 µM and 0.140 µM and 0.225 µM and 0.134 µM in data set [2] (360 min, individual subjects); 0.110 µM and 0.051 µM and 0.053 µM and 0.103 µM and 0.049 µM in data set [2] (480 min, individual subjects); 0.019 μM (2×) and 0.026 μM (2×) and 0.018 μM in data set [2] (600 min, individual subjects); 7.668 µM and 14.456 µM and 10.833 µM and 11.650 µM and 11.714 µM in data set [2] (rabbit, 10 mg/kg 20 min i.v. infusion, 5 min, individual subjects, 10 mg/kg). In data set [2] (setting [4]), this compound registered a Cmax of 13.5 ± 3.2 µM. Moreover, the Tmax in data set [2] (setting [4]) was 10 min. Moreover, the “concentrations present in rabbits during daunorubicin administration” value in data set [2] (plasma) was not above 3 µM. Also, the “time with plasma concentration ≥ 1 μM” value in data set [2] (rabbit, 10 mg/kg, 20 min i.v. infusion) came out at 2.5 h. The compound also registered a concentration at 10 min in data set [2] (rabbit, plasma, intravenous, 10 mg/kg, 10 min, individual subjects) of 10.8 µM. The compound further gave a concentration at 20 min in data set [2] (rabbit, plasma, intravenous, 10 mg/kg, 20 min, individual subjects) of 10.5 µM. This compound also yielded a concentration at 40 min in data set [2] (rabbit, plasma, intravenous, 10 mg/kg, 40 min, individual subjects) of 3.47 µM. This compound had a concentration at 120 min in data set [2] (rabbit, plasma, intravenous, 10 mg/kg, 120 min, individual subjects) of 1.32 µM. In data set [2] (rabbit, plasma, intravenous, 10 mg/kg, 240 min, individual subjects), this compound gave a concentration at 240 min of 0.429 µM. For the same compound, in data set [2] (rabbit, plasma, intravenous, 10 mg/kg, 360 min, individual subjects), the concentration at 360 min is 0.155 µM. This compound also had a concentration at 600 min in data set [2] (rabbit, plasma, intravenous, 10 mg/kg, 600 min, individual subjects) of 0.025 µM. The same compound registered a concentration at 5 min in data set [2] (rabbit, plasma, iv, 10 mg/kg, 10 mg/kg 20 min i.v. infusion, 5 min, individual subjects) of 11.1 µM.
Turning to `COc1cccc2c1C(=O)c1c(O)c3c(c(O)c1C2=O)C[C@@](O)(C(C)=O)C[C@@H]3O[C@H]1C[C@H](N)[C@H](O)[C@H](C)O1` [DAU, daunorubicin, reference compound], the IC50 in data set [3] was 15 nM.
